Data taken from US5041447A, “Oxetanocin-related compounds and pharmaceutical compositions containing them” (priority 1988, dated 1991).
In brackets after ≈: the same amount, converted by molar mass.

Assays:
[1] = test system: HIV (human immunodeficiency virus); test: Anti-HIV activity: development of virus antigen in HIV-infected MT-4 cells (indirect fluorescent antibody method); format: cell-based; conditions: 4 days, DMSO only 80 to 90%
Procedure: Anti-HIV (human immunodeficiency virus) activity
MT-4 cell (about 100,000 cells/ml) was added into a 24 well tray, and then 100 microliters of a solution containing a predetermined quantity of a compound of this invention was added. After culturing it at 37° C. for 5 hours in 5% (v/v) carbon dioxide incubator, 10^3 to 10^4 infection units of HIV was added and cultured for 4 days. Then, a part of the cultured fluid was coated onto a slide glass and immobilized with acetone, after which development of virus antigen was observed by indirect fluorescent antibody method.
As the primary antibody of the fluorescent antibody method, a serum of AIDS patient was used. As its secondary antibody, FITC-labelled […] was used.

[2] = test system: cytomegalovirus (A0169 strain); test: Anti-cytomegalovirus activity: plaque formation in human fetal fibroblasts; format: cell-based; conditions: Human betaherpesvirus 5, Fibroblast, 240 h, 100 PFU, 37° C., 10 days
Procedure: Anti-cytomegalovirus activity was determined in the following manner. Thus, a 35 mm.phi. dish containing a single layer of human fetal fibroblasts was infected with 100 PFU (plaque forming units) of cytomegalovirus (A0169 strain). After adsorption for one hour, a medium (0.5% agarose, 2% fetal calf serum) containing a varied concentration of the compound of this invention was superposed thereon, and the whole was cultured at 37° C. for 10 days in 5% (v/v) carbon dioxide incubator, after which the formation of plaque was measured. The results are shown in Table 3 in terms of 50% inhibitory value (IC50).

Compound | Development of virus antigen (%) ([1]; 3 μg/ml) | Development of virus antigen (%) ([1]; 10 μg/ml) | Development of virus antigen (%) ([1]; 100 μg/ml) | IC50 [2]
Nc1ncnc2c1ncn2[C@H]1C[C@@H](CO)O1 [Compound No. 1] | 0.1% | < 0.1% | < 0.1% | –
[N-]=[N+]=NC[C@H]1[C@H](n2cnc3c(N)ncnc32)O[C@@H]1CO [Compound No. 2] | 15% | 10% | < 0.1% | –
Nc1ncnc2c1ncn2[C@@H]1O[C@H](CO)[C@@H]1O [Compound No. 3] | 1% | 0.1% | < 0.1% | –
C=C1[C@H](n2cnc3c(N)ncnc32)O[C@@H]1CO [Compound No. 4] | 10% | 3% | < 0.1% | –
CCCCC(=O)OC[C@H]1O[C@@H](n2cnc3c(N)ncnc32)[C@@H]1CO [Compound No. 8] | 5% | 3% | < 0.1% | –
CCCCCCCCCCCCCCCC(=O)OC[C@H]1O[C@@H](n2cnc3c(N)ncnc32)[C@@H]1CO [Compound No. 9] | 7% | 3% | < 0.1% | 1.7 µg/mL (≈ 3.47 µM)
Nc1ncnc2c1ncn2[C@@H]1O[C@H](CO)[C@H]1F [Compound No. 10] | > 90% | 50% | < 0.1% | –
[N-]=[N+]=N[C@H]1[C@H](n2cnc3c(N)ncnc32)O[C@@H]1CO [Compound No. 11] | > 90% | 75% | < 0.1% | –
O=c1[nH]cnc2c1ncn2[C@H]1C[C@@H](CO)O1 [Compound No. 13] | < 0.1% | < 0.1% | < 0.1% | –
CCCCC(=O)OC[C@H]1O[C@@H](n2cnc3c(=O)[nH]c(N)nc32)[C@@H]1CO [Compound No. 14] | – | – | – | > 5 µg/mL
CCCCC(=O)OC[C@H]1O[C@@H](n2cnc3c(N)nc(N)nc32)[C@@H]1CO [Compound No. 15] | – | – | – | > 5 µg/mL
Nc1ncnc2c1ncn2[C@@H]1O[C@H](CO)[C@H]1N [Compound No. 16] | 17% | 6% | < 0.1% | –
O=c1[nH]cnc2c1ncn2[C@@H]1O[C@H](CO)[C@H]1COS(=O)(=O)O [Compound No. 17] | 60% | 10% | < 0.1% | –
